Legend:
dopamine D2 receptors = dopamine D2 receptors (Homo sapiens, UniProt P14416); assay: [35S]GTPγS binding assay in transfected cells, dopamine D2 receptor; format: biochemical
adult male Wistar rats [1] = tested on: adult male Wistar rats
adult male Wistar rats [2] = assay: Rotarod, evaluation of motor impairment; format: in vivo; details: 10 nmol/rat i.t., 30 min after administration, cut-off 300 s, n = 6
adult male Wistar rats [3] = assay: Tail-flick test, acute pain model, single administration; format: in vivo; details: i.t., 10 nmol/rat, mean ± SEM
adult male Wistar rats [4] = assay: Scratching and grooming behaviour; format: in vivo; details: 10 nmol/rat i.t.

dopamine D2 receptors, sequence (P14416 whole entry): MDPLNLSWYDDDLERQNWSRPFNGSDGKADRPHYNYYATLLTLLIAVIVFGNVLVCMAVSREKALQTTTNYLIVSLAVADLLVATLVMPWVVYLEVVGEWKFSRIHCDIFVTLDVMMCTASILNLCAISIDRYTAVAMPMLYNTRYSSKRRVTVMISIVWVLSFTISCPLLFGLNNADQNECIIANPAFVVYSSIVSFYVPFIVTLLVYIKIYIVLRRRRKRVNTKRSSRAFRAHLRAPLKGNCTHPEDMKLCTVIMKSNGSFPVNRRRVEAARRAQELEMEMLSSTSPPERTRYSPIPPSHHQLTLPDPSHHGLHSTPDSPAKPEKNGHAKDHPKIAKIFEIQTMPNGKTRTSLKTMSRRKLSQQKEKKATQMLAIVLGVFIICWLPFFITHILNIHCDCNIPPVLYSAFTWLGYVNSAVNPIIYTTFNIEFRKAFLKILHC

SMILES | Influence of domperidone on the [35S]GTPγS response (dopamine D2 receptors; dopamine receptor antagonist domperidone present, unpublished data) | Emax (dopamine D2 receptors; read-out: Emax, G protein activation at dopamine D2 receptor) [%] | Increase in the acute ED50 values after repeated treatment (adult male Wistar rats [1]; i.t., tail-flick test) [fold] | ED50 value (nmol, i.t.), Day 1 (adult male Wistar rats [1]; rat tail-flick, 30 min post-injection, Day 1, mean (CI 95%)) | ED50 value (nmol, i.t.), Day 3 (adult male Wistar rats [1]; rat tail-flick, repeated daily treatment, Day 3, mean (CI 95%)) | Latency to fall, Rotarod (adult male Wistar rats [2]) [s] | MPE (%), tail-flick test (adult male Wistar rats [3]; 15 min post-administration) [%] | MPE (%), tail-flick test (adult male Wistar rats [3]; 30 min post-injection) [%] | Additional behaviours (wet-dog shakes, teeth chattering) (adult male Wistar rats [4]) | Scratching response (adult male Wistar rats [4]; day 9, first 30 min post-injection)
NCCc1ccc(O)c(O)c1 [Dopamine] | considerably reduced in the presence of domperidone | 141 |  |  |  |  |  |  |  | 
CN1CC[C@]23c4c5ccc(O)c4O[C@H]2[C@@H](O)C=C[C@H]3[C@H]1C5 [Morphine] |  |  | 3.2 | 2.82 (2.33–3.41) nmol | 9.03 (7.03–11.61) nmol | 222.33 ± 8.44 | 84.50 ± 3.84 | 86.23 ± 4.76 | wet-dog shakes and teeth chattering | strong scratch reflex in rats that weakened over time

Source: article PMC7488486 (Acta Pharmaceutica Sinica. B, 2020)
